The experiment concerns NRF2 (NQO1 activity as marker for NRF2 activation), BEAS-2B cells. The experiment can be described thus: BEAS-2B NQO1 MTT Assay. In kind it is cell-based. The conditions noted are these: Homo sapiens, EC50 of NQO1 specific activity induction, 48 hours incubation, read-out: EC50. An excerpt:
NAD(P)H:quinone oxidoreductase 1 (NQO1), also called DT diaphorase, is a homodimeric FAD-containing enzyme that catalyzes obligatory NAD(P)H-dependent two-electron reductions of quinones and protects cells against the toxic and neoplastic effects of free radicals and reactive oxygen species arising from one-electron reductions. The transcription of NQO1 is finely regulated by NRF2, and thus NQO1 activity is a good marker for NRF2 activation. On day one, frozen BEAS-2B cells (ATCC) are thawed in a water bath, counted, and re-suspended at a concentration of 250,000 cells/mL. Fifty microliters of cells are plated in 384 well black clear-bottomed plates. Plates are incubated at 37° C., 5% CO2 overnight. On day two, plates are centrifuged and 50 nL of compound or controls are added to the cells. Plates are then incubated at 37° C., 5% CO2 for 48 hours. On day four, medium is aspirated from the plate and crude cell lysates are made by adding 13 uL of 1× Cell Signaling Technologies lysis buffer with 1 Complete, Mini, EDTA-free Protease Inhibitor Tablet (Roche) for each 10 mL of lysis buffer. After lysis plates are incubated for 20 minutes at room temperature. Two microliters of lysate are removed for use in Cell Titer Glo assay (Promega) and MTT cocktail is prepared (Prochaska et. al. 1998) for measurement of NQO1 activity. Fifty microliters of MTT cocktail is added to each well, plate is centrifuged, and analyzed on an Envision plate reader (Perkin Elmer) using Absorbance 570 nm label for 30 minutes. Product formation is measured kinetically and the EC50 of NQO1 specific activity induction is calculated by plotting the change in absorbance (Delta OD/min) versus the log of compound concentration followed by 3-parameter fitting.
EC50s<1 nM (+++++), EC50s 1 nM-10 nM (++++), EC50s 10 nM-100 nM (+++), EC50s 100 nM-1 uM (++), EC50s 1-10 uM (+), EC50s>10 uM (−), or were not determined (ND).

The EC50 is the concentration giving half of the maximal effect.

Consider `CC[C@@H]1CN(Cc2cc([C@H](CC(=O)Nc3ccnn3C)c3ccc4c(nnn4CC)c3C)ccc2C)S(=O)(=O)c2cccnc2O1` [Example 9, (S)-3-(3-(((R)-4-Ethyl-1,1-dioxido-3,4-dihydro-2H-pyrido[2,3-b][1,4,5]oxathiazepin-2-yl)methyl)-4-methylphenyl)-3-(1-ethyl-4-methyl-1H-benzo[d][1,2,3]triazol-5-yl)-N-(1-methyl-1H-pyrazol-5-yl)propanamide], for which the EC50 lay in the range of 100 to 1000 nM.

`CC[C@@H]1CN(Cc2cc([C@H](CC(=O)Nc3cnccc3C)c3ccc4c(nnn4CC)c3C)ccc2C)S(=O)(=O)c2cccnc2O1` [Example 10, (S)-3-(3-(((R)-4-Ethyl-1,1-dioxido-3,4-dihydro-2H-pyrido[2,3-b][1,4,5]oxathiazepin-2-yl)methyl)-4-methylphenyl)-3-(1-ethyl-4-methyl-1H-benzo[d][1,2,3]triazol-5-yl)-N-(4-methylpyridin-3-yl)propanamide]: the EC50 lay within 100 to 1000 nM.

Take `CC[C@@H]1CN(Cc2cc([C@H](CC(=O)Nc3cnccc3OC)c3ccc4c(nnn4CC)c3C)ccc2C)S(=O)(=O)c2cccnc2O1` [Example 11, (S)-3-(3-(((R)-4-Ethyl-1,1-dioxido-3,4-dihydro-2H-pyrido[2,3-b][1,4,5]oxathiazepin-2-yl)methyl)-4-methylphenyl)-3-(1-ethyl-4-methyl-1H-benzo[d][1,2,3]triazol-5-yl)-N-(4-methoxypyridin-3-yl)propanamide]: the EC50 is 10 to 100 nM. Consider `CC[C@@H]1CN(Cc2cc([C@H](CC(=O)Nc3cncc(C(F)(F)F)c3)c3ccc4c(nnn4CC)c3C)ccc2C)S(=O)(=O)c2cccnc2O1` [Example 12, (S)-3-(3-(((R)-4-Ethyl-1,1-dioxido-3,4-dihydro-2H-pyrido[2,3-b][1,4,5]oxathiazepin-2-yl)methyl)-4-methylphenyl)-3-(1-ethyl-4-methyl-1H-benzo[d][1,2,3]triazol-5-yl)-N-(5-(trifluoromethyl)pyridin-3-yl)propanamide], for which the EC50 is 10 to 100 nM. With `CC[C@@H]1CN(Cc2cc([C@H](CC(=O)Nc3cncc(OC)c3)c3ccc4c(nnn4CC)c3C)ccc2C)S(=O)(=O)c2cccnc2O1` [Example 13, (S)-3-(3-(((R)-4-Ethyl-1,1-dioxido-3,4-dihydro-2H-pyrido[2,3-b][1,4,5]oxathiazepin-2-yl)methyl)-4-methylphenyl)-3-(1-ethyl-4-methyl-1H-benzo[d][1,2,3]triazol-5-yl)-N-(5-methoxypyridin-3-yl)propanamide] the figure was 10 to 100 nM; with `CC[C@@H]1CN(Cc2cc([C@H](CC(=O)Nc3ccc(C(F)(F)F)nc3)c3ccc4c(nnn4CC)c3C)ccc2C)S(=O)(=O)c2cccnc2O1` [Example 14, (S)-3-(3-(((R)-4-Ethyl-1,1-dioxido-3,4-dihydro-2H-pyrido[2,3-b][1,4,5]oxathiazepin-2-yl)methyl)-4-methylphenyl)-3-(1-ethyl-4-methyl-1H-benzo[d][1,2,3]triazol-5-yl)-N-(6-(trifluoromethyl)pyridin-3-yl)propanamide], 100 to 1000 nM; with `CC[C@@H]1CN(Cc2cc([C@H](CC(=O)Nc3ccc(C)nc3)c3ccc4c(nnn4CC)c3C)ccc2C)S(=O)(=O)c2cccnc2O1` [Example 15, (S)-3-(3-(((R)-4-Ethyl-1,1-dioxido-3,4-dihydro-2H-pyrido[2,3-b][1,4,5]oxathiazepin-2-yl)methyl)-4-methylphenyl)-3-(1-ethyl-4-methyl-1H-benzo[d][1,2,3]triazol-5-yl)-N-(6-methylpyridin-3-yl)propanamide], 100 to 1000 nM. With `CC[C@@H]1CN(Cc2cc([C@H](CC(=O)NCc3nccn3C)c3ccc4c(nnn4CC)c3C)ccc2C)S(=O)(=O)c2cccnc2O1` [Example 16, (S)-3-(3-(((R)-4-Ethyl-1,1-dioxido-3,4-dihydro-2H-pyrido[2,3-b][1,4,5]oxathiazepin-2-yl)methyl)-4-methylphenyl)-3-(1-ethyl-4-methyl-1H-benzo[d][1,2,3]triazol-5-yl)-N-((1-methyl-1H-imidazol-2-yl)methyl)propanamide] the figure was 1000 to 10000 nM; with `CC[C@@H]1CN(Cc2cc([C@H](CC(=O)Nc3nccn3C)c3ccc4c(nnn4CC)c3C)ccc2C)S(=O)(=O)c2cccnc2O1` [Example 17, (S)-3-(3-(((R)-4-Ethyl-1,1-dioxido-3,4-dihydro-2H-pyrido[2,3-b][1,4,5]oxathiazepin-2-yl)methyl)-4-methylphenyl)-3-(1-ethyl-4-methyl-1H-benzo[d][1,2,3]triazol-5-yl)-N-(1-methyl-1H-imidazol-2-yl)propanamide], 100 to 1000 nM; with `CC[C@@H]1CN(Cc2cc([C@H](CC(=O)Nc3cncc4ccccc34)c3ccc4c(nnn4CC)c3C)ccc2C)S(=O)(=O)c2cccnc2O1` [Example 18, (S)-3-(3-(((R)-4-Ethyl-1,1-dioxido-3,4-dihydro-2H-pyrido[2,3-d][1,4,5]oxathiazepin-2-yl)methyl)-4-methylphenyl)-3-(1-ethyl-4-methyl-1H-benzo[d][1,2,3]triazol-5-yl)-N-(isoquinolin-4-yl)propanamide], 10 to 100 nM.

For the molecule `CC[C@@H]1CN(Cc2cc([C@H](CC(=O)Nc3ccncc3)c3ccc4c(nnn4CC)c3C)ccc2C)S(=O)(=O)c2cccnc2O1` [Example 19, (S)-3-(3-(((R)-4-Ethyl-1,1-dioxido-3,4-dihydro-2H-pyrido[2,3-b][1,4,5]oxathiazepin-2-yl)methyl)-4-methylphenyl)-3-(1-ethyl-4-methyl-1H-benzo[d][1,2,3]triazol-5-yl)-N-(pyridin-4-yl)propanamide], the EC50 was in the range of 100 to 1000 nM. With `CC[C@@H]1CN(Cc2cc([C@@H](c3ccc4c(nnn4CC)c3C)[C@@H](C)C(=O)N3C(=O)OC[C@H]3Cc3ccccc3)ccc2C)S(=O)(=O)c2cccnc2O1` [Example 20, (R)-4-Benzyl-3-((2R,3S)-3-(3-(((R)-4-ethyl-1,1-dioxido-3,4-dihydro-2H-pyrido[2,3-b][1,4,5]oxathiazepin-2-yl)methyl)-4-methylphenyl)-3-(1-ethyl-4-methyl-1H-benzo[d][1,2,3]triazol-5-yl)-2-methylpropanoyl)oxazolidin-2-one] the figure was 100 to 1000 nM. With `CC[C@@H]1CN(Cc2cc([C@H](CC(=O)NCCC(=O)N(C)C)c3ccc4c(nnn4CC)c3C)ccc2C)S(=O)(=O)c2cccnc2O1` [Example 21, (S)—N-(3-(Dimethylamino)-3-oxopropyl)-3-(3-(((R)-4-ethyl-1,1-dioxido-3,4-dihydro-2H-pyrido[2,3-b][1,4,5]oxathiazepin-2-yl)methyl)-4-methylphenyl)-3-(1-ethyl-4-methyl-1H-benzo[d][1,2,3]triazol-5-yl)propanamide] the figure was 1000 to 10000 nM. With `CC[C@@H]1CN(Cc2cc([C@H](CC(=O)NC3CCOC3)c3ccc4c(nnn4CC)c3C)ccc2C)S(=O)(=O)c2cccnc2O1` (stereo partly drawn) [Example 22, (3S)-3-(3-(((R)-4-Ethyl-1,1-dioxido-3,4-dihydro-2H-pyrido[2,3-b][1,4,5]oxathiazepin-2-yl)methyl)-4-methylphenyl)-3-(1-ethyl-4-methyl-1H-benzo[d][1,2,3]triazol-5-yl)-N-(tetrahydrofuran-3-yl)propanamide] the figure was 100 to 1000 nM.
